Results as given in BindingDB's records for doi:10.1016/j.bmcl.2007.04.051 (Eli Lilly, 2007).

Key:
[1] = molecular target: T1, Estrogen receptor (Homo sapiens, UniProt P03372); assay: Estrogen Receptor Binding Assay.; details: pH 7.5; 22 °C
T1 sequence (P03372 whole entry): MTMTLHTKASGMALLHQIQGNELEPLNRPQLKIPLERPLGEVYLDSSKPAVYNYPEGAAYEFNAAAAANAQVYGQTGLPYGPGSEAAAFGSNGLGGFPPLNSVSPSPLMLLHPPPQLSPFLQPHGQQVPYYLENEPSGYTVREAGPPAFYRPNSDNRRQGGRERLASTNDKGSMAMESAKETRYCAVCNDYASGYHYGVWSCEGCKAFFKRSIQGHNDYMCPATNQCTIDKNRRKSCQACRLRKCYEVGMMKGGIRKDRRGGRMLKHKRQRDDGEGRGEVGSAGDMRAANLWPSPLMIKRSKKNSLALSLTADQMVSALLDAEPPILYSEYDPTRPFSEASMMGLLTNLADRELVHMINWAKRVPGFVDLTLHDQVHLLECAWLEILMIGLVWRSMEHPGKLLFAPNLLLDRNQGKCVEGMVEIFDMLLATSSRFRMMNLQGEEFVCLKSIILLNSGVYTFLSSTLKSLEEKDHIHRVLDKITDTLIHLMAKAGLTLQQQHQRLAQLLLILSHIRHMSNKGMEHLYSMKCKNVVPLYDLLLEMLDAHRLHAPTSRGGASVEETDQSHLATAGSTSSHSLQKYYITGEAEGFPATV
Protocol: (§1) The binding affinities were determined by a competitive radiometric binding assay using [3H]estradiol as tracer. The Kd for 3H-estradiol was determined by saturation binding to ER receptors. The IC50 values for compounds were converted to Ki using Cheng-Prusoff equation.

[2] = molecular target: Estrogen receptor beta (Homo sapiens, UniProt Q92731); assay: Estrogen Receptor Binding Assay.; details: pH 7.5; 22 °C
Chain of Estrogen receptor beta (Q92731 whole entry): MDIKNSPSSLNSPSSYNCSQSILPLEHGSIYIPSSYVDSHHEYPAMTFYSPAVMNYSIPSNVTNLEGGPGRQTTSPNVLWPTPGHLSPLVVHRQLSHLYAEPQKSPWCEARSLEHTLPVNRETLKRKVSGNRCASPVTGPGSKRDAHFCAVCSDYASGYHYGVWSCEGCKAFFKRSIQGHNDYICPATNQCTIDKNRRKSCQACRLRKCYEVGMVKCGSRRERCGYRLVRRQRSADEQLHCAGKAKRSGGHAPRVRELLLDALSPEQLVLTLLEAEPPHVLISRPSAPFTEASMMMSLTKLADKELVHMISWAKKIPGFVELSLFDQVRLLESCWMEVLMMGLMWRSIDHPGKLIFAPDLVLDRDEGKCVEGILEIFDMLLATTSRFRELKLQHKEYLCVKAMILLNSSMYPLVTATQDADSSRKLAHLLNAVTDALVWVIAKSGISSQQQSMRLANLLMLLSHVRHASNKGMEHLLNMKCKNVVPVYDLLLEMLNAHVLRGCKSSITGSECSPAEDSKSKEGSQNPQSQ
Protocol: as §1

| SMILES | Ki [1] [nM] | Ki [2] [nM] |
| --- | --- | --- |
| Oc1ccc([C@@H]2CCc3cc(O)ccc3O2)cc1 [racemic mixture] | 126 | – |
| Oc1ccc([C@@H]2Oc3ccc(O)cc3[C@@H]3CCCCC[C@@H]32)cc1 [racemic mixture] | 6.11 | 0.88 |
| Oc1cccc([C@@H]2Oc3ccc(O)cc3[C@@H]3CCC[C@@H]32)c1 (racemic) [(2R,6S,7R)-7-(3-hydroxyphenyl)-8-oxatricyclo[7.4.0.0^{2,6}]trideca-1(9),10,12-trien-12-ol] | 65 | – |
| Oc1ccc([C@@H]2Oc3cccc(O)c3[C@@H]3CCC[C@@H]32)cc1 [racemic mixture] | 0.35 | 0.66 |
| Oc1ccc([C@@H]2Oc3ccccc3[C@@H]3CCC[C@@H]32)cc1 (racemic) [4-[(2R,6S,7R)-8-oxatricyclo[7.4.0.0^{2,6}]trideca-1(9),10,12-trien-7-yl]phenol] | 40 | 22.1 |
| Oc1ccc2c(c1)[C@@H]1CCC[C@@H]1[C@H](c1ccccc1)O2 [racemic mixture] | 267 | – |
| Oc1ccc([C@@H]2Oc3ccc(O)cc3[C@@H]3CCCC[C@@H]32)cc1 [racemic mixture] | 2.88 | 0.63 |
| Oc1ccc([C@@H]2Oc3cc(O)ccc3[C@@H]3CCC[C@@H]32)cc1 [racemic mixture] | 41 | 18.9 |
